Columns and labels:
ENR+CD organoids = test: Primary screen: ATP (CellTiter-Glo 3D, CTG) cell number/viability, 2.5-D 384-well ENR+CD organoids; details: primary screen; for Z.CTG: standard z score;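 for all read-outs here: compounds given at plating and again on day 3 over a 6-day differentiation from ENR+CV stem-cell-enriched precursors, ATP measured on day 6, plate median as control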
[1] = tested on: ENR+CD organoids (ISC to Paneth cell differentiation); test: Primary screen: CCh-stimulated lysozyme secretion LYZ.S, 2.5-D 384-well ENR+CD organoid differentiation; format: cell-based, mouse; details: primary screen
Description: (§1) High-throughput screening.

[2] = tested on: ENR+CD organoids (ISC to Paneth cell differentiation); test: Primary screen: basal (non-stimulated) lysozyme secretion LYZ.NS, 2.5-D 384-well ENR+CD organoid differentiation; format: cell-based, mouse
Description: as §1

[3] = dose 0.08 uM, FC relative to plate median
[4] = dose 0.40 uM, FC relative to plate median
[5] = dose 2.00 uM, FC relative to plate median
[6] = dose 10.00 uM, FC relative to plate median
[7] = primary screen, dose 0.08 uM, standard z score
[8] = primary screen, dose 0.40 uM, standard z score
[9] = primary screen, dose 2.00 uM, standard z score
[10] = primary screen, dose 10.00 uM, standard z score
[11] = dose 0.08 uM, FC vs plate median
[12] = dose 0.40 uM, FC vs plate median
[13] = dose 2.00 uM, FC vs plate median
[14] = dose 10.00 uM, FC vs plate median

Cc1ccc2c(=O)c3cccc(CC(=O)O)c3oc2c1C [DMXAA (Vadimezan)]
Dose.FC.CTG (ENR+CD organoids; dose 0.08 uM): −0.568 log2 fold change
Dose.FC.CTG (ENR+CD organoids; dose 0.40 uM): −0.629 log2 fold change
Dose.FC.CTG (ENR+CD organoids; dose 2.00 uM): −0.477 log2 fold change
Dose.FC.CTG (ENR+CD organoids; dose 10.00 uM): −0.230 log2 fold change
Z.CTG (ENR+CD organoids; dose 0.08 uM): −1.357
Z.CTG (ENR+CD organoids; dose 0.40 uM): −1.502
Z.CTG (ENR+CD organoids; dose 2.00 uM): −1.139
Z.CTG (ENR+CD organoids; dose 10.00 uM): −0.550
Dose.FC.LYZ.S ([1]; dose 0.08 uM): −0.091 log2 fold change
Dose.FC.LYZ.S ([1]; dose 0.40 uM): −0.009 log2 fold change
Dose.FC.LYZ.S ([1]; dose 2.00 uM): −0.094 log2 fold change
Dose.FC.LYZ.S ([1]; dose 10.00 uM): −0.118 log2 fold change
Dose.FC.LYZ.NS ([2]; primary screen, dose 0.08 uM): −0.007 log2 fold change
Dose.FC.LYZ.NS ([2]; primary screen, dose 0.40 uM): −0.036 log2 fold change
Dose.FC.LYZ.NS ([2]; primary screen, dose 2.00 uM): −0.038 log2 fold change
Dose.FC.LYZ.NS ([2]; primary screen, dose 10.00 uM): −0.031 log2 fold change
Z.LYZ.NS ([2]; primary screen, standard z score, dose 0.08 uM): −0.065
Z.LYZ.NS ([2]; primary screen, standard z score, dose 0.40 uM): −0.317
Z.LYZ.NS ([2]; primary screen, standard z score, dose 2.00 uM): −0.334
Z.LYZ.NS ([2]; primary screen, standard z score, dose 10.00 uM): −0.271

CN(C)C(=O)c1ccc(S(=O)(=O)c2ccc(NC(=O)[C@@](C)(O)C(F)(F)F)c(Cl)c2)cc1 [AZD7545]
Dose.FC.CTG (ENR+CD organoids; dose 0.08 uM): −0.334 log2 fold change
Z.CTG (standard z score) (ENR+CD organoids; dose 0.08 uM): −0.798
Dose.FC.CTG (ENR+CD organoids; dose 0.40 uM): −0.158 log2 fold change
Z.CTG (standard z score) (ENR+CD organoids; dose 0.40 uM): −0.378
Dose.FC.CTG (ENR+CD organoids; dose 2.00 uM): −0.255 log2 fold change
Z.CTG (standard z score) (ENR+CD organoids; dose 2.00 uM): −0.608
Dose.FC.CTG (ENR+CD organoids; dose 10.00 uM): −0.350 log2 fold change
Z.CTG (standard z score) (ENR+CD organoids; dose 10.00 uM): −0.836
Dose.FC.LYZ.S ([1]; dose 0.08 uM): 0.111 log2 fold change
Dose.FC.LYZ.S ([1]; dose 0.40 uM): −0.017 log2 fold change
Dose.FC.LYZ.S ([1]; dose 2.00 uM): −0.148 log2 fold change
Dose.FC.LYZ.S ([1]; dose 10.00 uM): −0.104 log2 fold change
Dose.FC.LYZ.NS ([2]; primary screen, dose 0.08 uM): 0.087 log2 fold change
Z.LYZ.NS (standard z score) ([2]; primary screen, dose 0.08 uM): 0.758
Dose.FC.LYZ.NS ([2]; primary screen, dose 0.40 uM): −0.028 log2 fold change
Z.LYZ.NS (standard z score) ([2]; primary screen, dose 0.40 uM): −0.245
Dose.FC.LYZ.NS ([2]; primary screen, dose 2.00 uM): −0.018 log2 fold change
Z.LYZ.NS (standard z score) ([2]; primary screen, dose 2.00 uM): −0.155
Dose.FC.LYZ.NS ([2]; primary screen, dose 10.00 uM): −0.051 log2 fold change
Z.LYZ.NS (standard z score) ([2]; primary screen, dose 10.00 uM): −0.441

CN1CCN(c2nc(C3=C(c4c[nH]c5ccccc45)C(=O)NC3=O)c3ccccc3n2)CC1 [Sotrastaurin]
Dose.FC.CTG (ENR+CD organoids; [3]): 0.010 log2 fold change
Dose.FC.CTG (ENR+CD organoids; [4]): −0.120 log2 fold change
Dose.FC.CTG (ENR+CD organoids; [5]): −0.272 log2 fold change
Dose.FC.CTG (ENR+CD organoids; [6]): −0.242 log2 fold change
Dose.FC.LYZ.S [1, 3]: 0.097 log2 fold change
Dose.FC.LYZ.S [1, 4]: −0.043 log2 fold change
Dose.FC.LYZ.S [1, 5]: −0.085 log2 fold change
Dose.FC.LYZ.S [1, 6]: −0.164 log2 fold change
Dose.FC.LYZ.NS ([2]; primary screen, dose 0.08 uM, FC relative to plate median): 0.193 log2 fold change
Z.LYZ.NS [2, 7]: 1.678
Dose.FC.LYZ.NS ([2]; primary screen, dose 0.40 uM, FC relative to plate median): −0.065 log2 fold change
Z.LYZ.NS [2, 8]: −0.567
Dose.FC.LYZ.NS ([2]; primary screen, dose 2.00 uM, FC relative to plate median): 0.014 log2 fold change
Z.LYZ.NS [2, 9]: 0.125
Dose.FC.LYZ.NS ([2]; primary screen, dose 10.00 uM, FC relative to plate median): −0.126 log2 fold change
Z.LYZ.NS [2, 10]: −1.101

CC(C)(C)Cn1c(N)nc2ccc(-c3[nH]c(C(C)(C)C)nc3-c3ccc(F)cc3)nc21 [LY2228820]
Dose.FC.CTG (log2 fold change) (ENR+CD organoids; dose 0.08 uM): −0.299
Z.CTG (standard z score) (ENR+CD organoids; dose 0.08 uM): −0.715
Dose.FC.CTG (log2 fold change) (ENR+CD organoids; dose 0.40 uM): −0.340
Z.CTG (standard z score) (ENR+CD organoids; dose 0.40 uM): −0.812
Dose.FC.CTG (log2 fold change) (ENR+CD organoids; dose 2.00 uM): −0.339
Z.CTG (standard z score) (ENR+CD organoids; dose 2.00 uM): −0.810
Dose.FC.CTG (log2 fold change) (ENR+CD organoids; dose 10.00 uM): −0.332
Z.CTG (standard z score) (ENR+CD organoids; dose 10.00 uM): −0.793
Dose.FC.LYZ.S (log2 fold change) ([1]; dose 0.08 uM): −0.017
Dose.FC.LYZ.S (log2 fold change) ([1]; dose 0.40 uM): −0.054
Dose.FC.LYZ.S (log2 fold change) ([1]; dose 2.00 uM): −0.130
Dose.FC.LYZ.S (log2 fold change) ([1]; dose 10.00 uM): −0.164
Dose.FC.LYZ.NS (log2 fold change) ([2]; primary screen, dose 0.08 uM): 0.065
Z.LYZ.NS (standard z score) ([2]; primary screen, dose 0.08 uM): 0.569
Dose.FC.LYZ.NS (log2 fold change) ([2]; primary screen, dose 0.40 uM): −0.100
Z.LYZ.NS (standard z score) ([2]; primary screen, dose 0.40 uM): −0.874
Dose.FC.LYZ.NS (log2 fold change) ([2]; primary screen, dose 2.00 uM): 0.043
Z.LYZ.NS (standard z score) ([2]; primary screen, dose 2.00 uM): 0.377
Dose.FC.LYZ.NS (log2 fold change) ([2]; primary screen, dose 10.00 uM): −0.126
Z.LYZ.NS (standard z score) ([2]; primary screen, dose 10.00 uM): −1.099

CC(C)C[C@H](NC(=O)CNC(=O)c1cc(Cl)ccc1Cl)B(O)O [MLN2238]
Dose.FC.CTG (ENR+CD organoids; [11]): −1.655 log2 fold change
Dose.FC.CTG (ENR+CD organoids; [12]): −1.104 log2 fold change
Dose.FC.CTG (ENR+CD organoids; [13]): −1.233 log2 fold change
Dose.FC.CTG (ENR+CD organoids; [14]): −1.761 log2 fold change
Dose.FC.LYZ.S [1, 11]: −0.383 log2 fold change
Dose.FC.LYZ.S [1, 12]: −0.358 log2 fold change
Dose.FC.LYZ.S [1, 13]: −0.353 log2 fold change
Dose.FC.LYZ.S [1, 14]: −0.370 log2 fold change
Z.LYZ.NS [2, 7]: −2.358
Z.LYZ.NS [2, 8]: −2.477
Z.LYZ.NS [2, 9]: −2.166
Z.LYZ.NS [2, 10]: −2.597
Dose.FC.LYZ.NS ([2]; primary screen; dose 0.08 uM; FC vs plate median): −0.271 log2 fold change
Dose.FC.LYZ.NS ([2]; primary screen; dose 0.40 uM; FC vs plate median): −0.284 log2 fold change
Dose.FC.LYZ.NS ([2]; primary screen; dose 2.00 uM; FC vs plate median): −0.249 log2 fold change
Dose.FC.LYZ.NS ([2]; primary screen; dose 10.00 uM; FC vs plate median): −0.298 log2 fold change
